Laboratory results published in patent US20250169505A1, “INSECT PEST CONTROL BY A MIXTURE OF LURING SUBSTANCES WITH PATHOGENIC BIO-INSECTICIDES” (GREEN PROTECTA SA, priority 2022, published 2025).

Test system: thrips (Frankliniella occidentalis)
Assay: Example 1: powder adherence on thrips body
Type: in vivo
Conditions: mesh cage, Petri dish filled with powdery carrier
Excerpt: From 250 individual thrips (Frankliniella occidentalis) sourced from the company Bionema Limited in Swansea, 50 were released in mesh cages where fresh flowers and green beans were growing, and which contained a Petri dish filled with one powdery carriers.

Structure (SMILES) | fate of thrips after contact with the powder
CCCCCCCCCCCCCCCCCC(=O)O [stearic acid] | died thereafter
O=C(CO)[C@@H](O)[C@H](O)[C@H](O)CO [fructose] | died thereafter
